Reference: patent publication US11000491B2, “Amino-aryl-benzamide compounds and methods of use thereof” (HEPANOVA, INC., priority 2017, dated 2021)

How the values were obtained:
Assay type in all cases: cell-based
Huh7 cells = assay: LD content in Huh7 cells pre-treated with insulin, Oil-Red-O staining, absorbance OD 540 nm; conditions: Homo sapiens, Huh-7, Huh7 cells, procedure of Example 3; read-out: LD content inhibition (EC50)
Procedure: FIG. 6. […] Spectrophotometric absorbance of untreated or HPN-01-treated Huh7 cells pre-incubated with 1 mM insulin is shown. LD contents were stained using Oil Red O, and measured by determining spectrophotometer absorbance under OD 540 nm.
Huh7 cells were mock treated or pre-treated with 1 mM insulin, and subsequently treated with indicated amounted of HPN-01.
The ability of each HPN-01 derivative obtained from the synthesis methods described above, to inhibit LD formation in hepatocytes, was tested using the procedure outlined in Example 3. The results of this analysis are shown below in Table 6 (second column).

SREBP-1 = SREBP-1 expression in cultured primary human hepatocytes; conditions: Homo sapiens, Hepatocyte, procedure of Example 6, read-out: SREBP-1 mRNA inhibition (EC50)
Procedure: (§1) FIG. 9. Effects of HPN-01 on the expression of SREBP-1 (master regulator of hepatic glucose metabolism and fatty acid synthesis) and SREBP-2 (master regulator of cholesterol homeostasis in cells) in cultured primary human hepatocytes.
(§2) Cultured primary human hepatocytes were treated with various concentrations of HPN-01, and the expression levels of SREBP-1 (master regulator of hepatic glucose metabolism and fatty acid synthesis) and SREBP-2 (master regulator of cholesterol homeostasis in cells) were subsequently determined.
(§3) The ability of each HPN-01 derivative obtained from the synthesis methods described above, to inhibit SREBP-1 and SREBP-2 mRNA expression in primary hepatocytes, was tested using the procedure outlined in Example 6. The results of this analysis are shown in Table 6 (third and fourth columns).

SREBP-2 = SREBP-2 expression in cultured primary human hepatocytes; conditions: Homo sapiens, Hepatocyte, procedure of Example 6, read-out: SREBP-2 mRNA inhibition (EC50)
Procedure: as §1, §2, §3

SMILES | EC50 (Huh7 cells) [µM] | EC50 (SREBP-1) [µM] | EC50 (SREBP-2) [µM]
Nc1c(C(=O)Nc2ccccc2)cc(-c2ccc(Br)cc2)cc1-c1ccc(S(N)(=O)=O)cc1 [HPN-01612, 4′-amino-4-bromo-N-phenyl-4″-sulfamoyl-[1,1′:3′,1″-terphenyl]-5′-carboxamide] | 0.64 | 3.11 | 5.48
Nc1c(C(=O)NC2CC2)cc(-c2ccc(Br)cc2)cc1-c1ccc(S(N)(=O)=O)cc1 [HPN-01606, 4′-amino-4-bromo-N-cyclopropyl-4″-sulfamoyl-[1,1′:3′,1″-terphenyl]-5′-carboxamide] | 0.14 | 1.13 | 2.75
NC(=O)c1cc(C#CCOC(=O)c2ccc[nH]2)cc(-c2ccc(S(N)(=O)=O)cc2)c1N [HPN-01222, 3-(6-amino-5-carbamoyl-4′-sulfamoyl-[1,1′-biphenyl]-3-yl)prop-2-yn-1-yl 1H-pyrrole-2-carboxylate] | 1.36 | 7.31 | 12.8
NC(=O)c1cc(-c2c[nH]c(Cl)c2)cc(-c2ccc(S(N)(=O)=O)cc2)c1N [HPN-01310, 2-amino-5-(5-chloro-1H-pyrrol-3-yl)-4′-sulfamoyl-[1,1′-biphenyl]-3-carboxamide] | 10.5 | 13 | 23.9
Nc1c(C(=O)Nc2cccnc2)cc(-c2ccc(Cl)cc2)cc1-c1ccc(S(N)(=O)=O)cc1 [HPN-01625, 4′-amino-4-chloro-N-(pyridin-3-yl)-4″-sulfamoyl-[1,1′:3′,1″-terphenyl]-5′-carboxamide] | 2.32 | 3.32 | 18.8
NCC(=O)Nc1c(C(N)=O)cc(-c2ccc(Cl)cc2)cc1-c1ccc(S(N)(=O)=O)cc1 [HPN-01504, 4′-(2-aminoacetamido)-4-chloro-4″-sulfamoyl-[1,1′:3′,1″-terphenyl]-5′-carboxamide] | 0.46 | 0.73 | 1.11
NC(=O)c1cc(-c2cc(Cl)c[nH]2)cc(-c2ccc(S(N)(=O)=O)cc2)c1N [HPN-01309, 2-amino-5-(4-chloro-1H-pyrrol-2-yl)-4′-sulfamoyl-[1,1′-biphenyl]-3-carboxamide] | 3.5 | 8.16 | 8.96
COc1cccc(NC(=O)c2cc(-c3ccc(Br)cc3)cc(-c3ccc(S(N)(=O)=O)cc3)c2N)c1 [HPN-01620, 4′-amino-4-bromo-N-(3-methoxyphenyl)-4″-sulfamoyl-[1,1′:3′,1″-terphenyl]-5′-carboxamide] | 5.36 | 5.76 | 9.22
Cc1ccc(C(=O)OCC#Cc2cc(C(N)=O)c(N)c(-c3ccc(S(N)(=O)=O)cc3)c2)cc1 [HPN-01214, 3-(6-amino-5-carbamoyl-4′-sulfamoyl-[1,1′-biphenyl]-3-yl)prop-2-yn-1-yl 4-methylbenzoate] | 0.52 | 3.42 | 6.32
NS(=O)(=O)c1ccc(-c2cc(-c3ccc(Br)cc3)cc3c(=O)[nH]c(=O)[nH]c23)cc1 [HPN-01610, 4-(6-(4-bromophenyl)-2,4-dioxo-1,2,3,4-tetrahydroquinazolin-8-yl)benzene sulfonamide] | 1.16 | 2 | 3.44
NC(=O)c1cc(-c2ccc(Cl)cc2)cc(Oc2cccc(-c3nn[nH]n3)c2)c1N [HPN-01410, 5-(3-(2H-tetrazol-5-yl)phenoxy)-4-amino-4′-chloro-[1,1′-biphenyl]-3-carboxamide] | 0.58 | 2.09 | 4.08
NC(=O)Nc1ccc(-c2cc(-c3ccc(Cl)cc3)cc(C(N)=O)c2NC(=O)CCO)cc1 [HPN-01520, 4-chloro-4′-(3-hydroxypropanamido)-4″-ureido-[1,1′:3′,1″-terphenyl]-5′-carboxamide] | 2.51 | 3.01 | 4.45
CCCCNc1c(C(N)=O)cc(-c2ccc(Cl)cc2)cc1-c1ccc(S(N)(=O)=O)cc1 [HPN-01533, 4′-(butylamino)-4-chloro-4″-sulfamoyl-[1,1′:3′,1″-terphenyl]-5′-carboxamide] | 0.48 | 2.83 | 11.7
COc1cccc(C(=O)OCC#Cc2cc(C(N)=O)c(N)c(-c3ccc(S(N)(=O)=O)cc3)c2)c1 [HPN-01216, 3-(6-amino-5-carbamoyl-4′-sulfamoyl-[1,1′-biphenyl]-3-yl)prop-2-yn-1-yl 3-methoxybenzoate] | 0.96 | 4.35 | 7.93
NC(=O)c1cc(C#CCOC(=O)c2cccc(O)c2)cc(-c2ccc(S(N)(=O)=O)cc2)c1N [HPN-01219, 3-(6-amino-5-carbamoyl-4′-sulfamoyl-[1,1′-biphenyl]-3-yl)prop-2-yn-1-yl 3-hydroxybenzoate] | 0.96 | 4.71 | 6.91
NC(=O)c1cc(C#Cc2ccc(Cl)cc2)cc(-c2ccc(S(N)(=O)=O)cc2)c1N [HPN-01205, 2-amino-5-((4-chlorophenyl)ethynyl)-4′-sulfamoyl-[1,1′-biphenyl]-3-carboxamide] | 0.52 | 1.75 | 2.09
NC(=O)c1cc(-c2ccc(Br)cc2)cc(-c2ccc(S(N)(=O)=O)cc2)c1NC(=O)C1CC1 [HPN-01525, 4-bromo-4′-(cyclopropanecarboxamido)-4″-sulfamoyl-[1,1′:3′,1″-terphenyl]-5′-carboxamide] | 1.45 | 5.61 | 10
Nc1c(C(=O)NCCO)cc(-c2ccc(Br)cc2)cc1-c1ccc(S(N)(=O)=O)cc1 [HPN-01608, 4′-amino-4-bromo-N-(2-hydroxyethyl)-4″-sulfamoyl-[1,1′:3′,1″-terphenyl]-5′-carboxamide] | 1.2 | 2.39 | 4.31
CC(=O)OCC#Cc1cc(C(N)=O)c(N)c(-c2ccc(S(N)(=O)=O)cc2)c1 [HPN-01223, 3-(6-amino-5-carbamoyl-4′-sulfamoyl-[1,1′-biphenyl]-3-yl)prop-2-yn-1-yl acetate] | 1.03 | 2.64 | 4.2
NC(=O)c1cc(C2CCC(Br)C2)cc(-c2ccc(S(N)(=O)=O)cc2)c1N (stereo not drawn) [HPN-01321, 2-amino-5-(3-bromocyclopentyl)-4′-sulfamoyl-[1,1′-biphenyl]-3-carboxamide] | 1.76 | 3.06 | 5.31

More lines, main results first:

EC50 (Huh7 cells) [µM] | SMILES | EC50 (SREBP-1) [µM] | EC50 (SREBP-2) [µM]
2.44 | NC(=O)c1cc(/C=C/C(=O)Nc2ccc(O)cc2)cc(-c2ccc(S(N)(=O)=O)cc2)c1N [HPN-01122, (E)-2-amino-5-(3-((4-hydroxyphenyl)amino)-3-oxoprop-1-en-1-yl)-4′-sulfamoyl-[1,1′-biphenyl]-3-carboxamide] | 9.61 | 7.29
2.85 | CC(=O)Nc1ccc(/C=C/c2cc(C(N)=O)c(N)c(-c3ccc(S(N)(=O)=O)cc3)c2)cc1 [HPN-01106, (E)-5-(4-acetamidostyryl)-2-amino-4′-sulfamoyl-[1,1′-biphenyl]-3-carboxamide] | 6.35 | 6.45
0.67 | NC(=O)c1cc(/C=C/c2cccc(F)c2)cc(-c2ccc(S(N)(=O)=O)cc2)c1N [HPN-01104, (E)-2-amino-5-(3-fluorostyryl)-4′-sulfamoyl-[1,1′-biphenyl]-3-carboxamide] | 2.08 | 3.26
0.99 | NC(=O)c1cc(/C=C/c2cccc(Br)c2)cc(-c2ccc(S(N)(=O)=O)cc2)c1N [HPN-01103, (E)-2-amino-5-(3-bromostyryl)-4′-sulfamoyl-[1,1′-biphenyl]-3-carboxamide] | 2.14 | 3.08
0.89 | NC(=O)c1cc(/C=C/C(=O)OCCc2ccccc2)cc(-c2ccc(S(N)(=O)=O)cc2)c1N [HPN-01123, phenethyl (E)-3-(6-amino-5-carbamoyl-4′-sulfamoyl-[1,1′-biphenyl]-3-yl)acrylate] | 3.45 | 4.45
0.65 | CCCC(=O)Nc1cccc(/C=C/c2cc(C(N)=O)c(N)c(-c3ccc(S(N)(=O)=O)cc3)c2)c1 [HPN-01112, (E)-2-amino-5-(3-butyramidostyryl)-4′-sulfamoyl-[1,1′-biphenyl]-3-carboxamide] | 2.03 | 1.36
1.07 | CC(=O)Nc1ccc(-c2cc(-c3ccc(Cl)cc3)cc(C(N)=O)c2N)cc1 [HPN-01407, 4″-acetamido-4’-amino-4-chloro-[1,1′:3′,1″-terphenyl]-5′-carboxamide] | 5.41 | 9.69
0.63 | COC(=O)c1cccc(Nc2cc(C(N)=O)c(N)c(-c3ccc(S(N)(=O)=O)cc3)c2)c1 [HPN-01319, methyl 3-((6-amino-5-carbamoyl-4′-sulfamoyl-[1,1′-biphenyl]-3-yl)amino)benzoate] | 4.8 | 3.42
0.64 | NC(=O)c1cc(-c2ccc(Br)cc2)cc(Nc2ccc(S(N)(=O)=O)cc2)c1N [HPN-01404, 4-amino-4′-bromo-5-((4-sulfamoylphenyl)amino)-[1,1′-biphenyl]-3-carboxamide] | 1.97 | 3.39
